Data reported in patent US8993574B2, “Pyrrole antifungal agents” (F2G Ltd, priority 2008, dated 2015).
≈ marks a conversion by molar mass, not a printed value.

Tests used:
Assay type in all cases: cell-based
[1] = system: Aspergillus fumigatus AF210; assay: MIC, YAG medium; conditions: 24 h at 35° C, MIC banded into grades; for MIC: Aspergillus fumigatus, read-out: MIC grade, A. fumigatus 210
Outline: (§1)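 MICs (mg/L) derive from the lowest compound concentration suppressing spore outgrowth by >70% against a drug-free well, by OD 485 nm. Conditions: YAG medium, 1−2×10^4 cfu/mL, 24 h, 35° C, two-fold dilutions from 50 mg/L.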

Aspergillus niger [2] = assay: MIC, YAG medium; conditions: 24 h at 35° C, MIC banded into grades; for MIC: Aspergillus niger, read-out: MIC grade, A. niger
Outline: as §1

Aspergillus flavus [3] = assay: MIC, YAG medium; conditions: 24 h at 35° C, MIC banded into grades; for MIC: Aspergillus flavus, 24 h, read-out: MIC grade, A. flavus
Outline: as §1

Aspergillus terreus AT49 [4] = assay: MIC, YAG medium; conditions: 24 h at 35° C, MIC banded into grades; for MIC: Aspergillus terreus, read-out: MIC grade, A. terreus 49
Outline: as §1

Aspergillus terreus AT4 [5] = assay: MIC, YAG medium; conditions: 24 h at 35° C, MIC banded into grades; for MIC: Aspergillus terreus, read-out: MIC grade, A. terreus
Outline: as §1

[6] = system: Aspergillus fumigatus AF293; assay: MIC, YAG medium; conditions: 24 h at 35° C, MIC banded into grades; for MIC: Aspergillus fumigatus, read-out: MIC grade, A. fumigatus
Outline: as §1

[7] = system: Aspergillus fumigatus AF210; assay: MIC, RPMI medium; conditions: for MIC: Aspergillus fumigatus, AF210, MIC banded into grades, read-out: MIC grade, A. fumigatus 210
Outline: (§2)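 Fungi are tested in RPMI buffered with 0.135 M MOPS (pH 7.0) plus 2% glucose, inoculum 1−2×10^4 cfu/mL, against doubling compound dilutions spanning 50-0.05 mg/L. After 24-48 h at 35° C, the MIC is the lowest concentration suppressing growth by >80% against drug-free control.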

Candida parapsilosis = assay: MIC, RPMI medium; conditions: Lodderomyces parapsilosis, 24-48 h at 35° C., >80% growth inhibition, banded into grades
Outline: as §2

Aspergillus niger [8] = assay: MIC, RPMI medium; conditions: MIC banded into grades; for MIC: Aspergillus niger, read-out: MIC grade, A. niger
Outline: as §2

Aspergillus flavus [9] = assay: MIC, RPMI medium; conditions: MIC banded into grades; for MIC: Aspergillus flavus, read-out: MIC grade, A. flavus
Outline: as §2

Aspergillus terreus AT49 [10] = assay: MIC, RPMI medium; conditions: for MIC: Aspergillus terreus, AT49, MIC banded into grades, read-out: MIC grade, A. terreus 49
Outline: as §2

Candida albicans = assay: MIC, RPMI medium; conditions: Candida albicans, 24-48 h at 35° C., >80% growth inhibition, banded into grades
Outline: as §2

Candida krusei = assay: MIC, RPMI medium; conditions: Pichia kudriavzevii, 24-48 h at 35° C., >80% growth inhibition, banded into grades
Outline: as §2

Candida glabrata = assay: MIC, RPMI medium; conditions: Nakaseomyces glabratus, 24-48 h at 35° C., >80% growth inhibition, banded into grades
Outline: as §2

Aspergillus terreus AT4 [11] = assay: MIC, RPMI medium; conditions: for MIC: Aspergillus terreus, AT4, MIC banded into grades, read-out: MIC grade, A. terreus
Outline: as §2

Candida tropicalis = assay: MIC, RPMI medium; conditions: Candida tropicalis, 24-48 h at 35° C., >80% growth inhibition, banded into grades
Outline: as §2

[12] = system: Aspergillus fumigatus AF293; assay: MIC, RPMI medium; conditions: for MIC: Aspergillus fumigatus, AF293, MIC banded into grades, read-out: MIC grade, A. fumigatus
Outline: as §2

SMILES	MIC [1]	MIC (Aspergillus niger [2])	MIC (Aspergillus flavus [3])	MIC (Aspergillus terreus AT49 [4])	MIC (Aspergillus terreus AT4 [5])	MIC [6]	MIC [7]	MIC (Aspergillus niger [8])	MIC (Aspergillus flavus [9])	MIC (Aspergillus terreus AT49 [10])	MIC (Aspergillus terreus AT4 [11])	MIC [12]	other results
COCCn1c(C)cc(-c2ccccc2)c1C(=O)C(=O)Nc1ccc(N2CCN(c3cc(C)cc(C)n3)CC2)cc1 [Example 9, N-{4-[4-(4,6-Dimethyl-pyridin-2-yl)-piperazin-1-yl]-phenyl}-2-[1-(2-methoxy-ethyl)-5-methyl-3-phenyl-1H-pyrrol-2-yl]-2-oxo-acetamide]	< 1 µg/mL	< 1 µg/mL	< 1 µg/mL	< 1 µg/mL	< 1 µg/mL	< 1 µg/mL	< 1 µg/mL	< 1 µg/mL	> 10 µg/mL	1 to 10 µg/mL (≈ 1.81 to 18.1 µM)	1 to 10 µg/mL (≈ 1.81 to 18.1 µM)	< 1 µg/mL	MIC (Candida parapsilosis): < 1 µg/mL; MIC (Candida albicans): 1 to 10 µg/mL (≈ 1.81 to 18.1 µM); MIC (Candida krusei): < 1 µg/mL; MIC (Candida glabrata): < 1 µg/mL; MIC (Candida tropicalis): 1 to 10 µg/mL (≈ 1.81 to 18.1 µM)
Cc1cc(-c2ccccc2)c(C(=O)C(=O)Nc2ccc(N3CCN(C(=O)C(C)C)CC3)cc2)n1C [Example 145, 2-(1,5-Dimethyl-3-phenyl-1H-pyrrol-2-yl)-N-[4-(4-isobutyryl-piperazin-1-yl)-phenyl]-2-oxo-acetamide]	< 1 µg/mL	< 1 µg/mL	< 1 µg/mL	< 1 µg/mL	< 1 µg/mL	< 1 µg/mL	< 1 µg/mL	1 to 10 µg/mL (≈ 2.12 to 21.2 µM)	< 1 µg/mL	< 1 µg/mL	< 1 µg/mL	< 1 µg/mL	
Cc1cc(C)nc(N2CCN(c3ccc(NC(=O)C(=O)c4c(-c5ccccc5)cc(C)n4Cc4coc(C)n4)cc3)CC2)c1 [Example 146, N-{4-[4-(4,6-Dimethyl-pyridin-2-yl)-piperazin-1-yl]-phenyl}-2-[5-methyl-1-(2-methyl-oxazol-4-ylmethyl)-3-phenyl-1H-pyrrol-2-yl]-2-oxo-acetamide]	< 1 µg/mL	1 to 10 µg/mL (≈ 1.7 to 17 µM)	1 to 10 µg/mL (≈ 1.7 to 17 µM)	1 to 10 µg/mL (≈ 1.7 to 17 µM)	1 to 10 µg/mL (≈ 1.7 to 17 µM)	< 1 µg/mL	> 10 µg/mL	1 to 10 µg/mL (≈ 1.7 to 17 µM)	> 10 µg/mL	> 10 µg/mL	> 10 µg/mL	< 1 µg/mL	
Cc1cc(-c2ccccc2)c(C(=O)C(=O)Nc2ccc(-c3ncco3)cc2)n1C [Example 147, 2-(1,5-Dimethyl-3-phenyl-1H-pyrrol-2-yl)-N-(4-oxazol-2-yl-phenyl)-2-oxo-acetamide]	< 1 µg/mL	< 1 µg/mL	< 1 µg/mL	< 1 µg/mL	< 1 µg/mL	< 1 µg/mL	< 1 µg/mL	< 1 µg/mL	< 1 µg/mL	< 1 µg/mL	< 1 µg/mL	< 1 µg/mL	
Cc1cc(-c2ccccc2)c(C(=O)C(=O)Nc2ccc(-c3ncco3)c(F)c2)n1C [Example 148, 2-(1,5-Dimethyl-3-phenyl-1H-pyrrol-2-yl)-N-[3-fluoro-4-oxazole-2-yl-phenyl)-2-oxo-acetamide]	< 1 µg/mL	< 1 µg/mL	< 1 µg/mL	< 1 µg/mL	< 1 µg/mL	< 1 µg/mL	1 to 10 µg/mL (≈ 2.48 to 24.8 µM)	< 1 µg/mL	< 1 µg/mL	< 1 µg/mL	< 1 µg/mL	< 1 µg/mL	
COCCn1c(C)cc(-c2ccccc2)c1C(=O)C(=O)Nc1ccc(-c2ncco2)cc1 [Example 149, 2-[1-(2-Methoxy-ethyl)-5-methyl-3-phenyl-1H-pyrrol-2-yl]-N-(4-oxazol-2-yl-phenyl)-2-oxo-acetamide]	< 1 µg/mL	< 1 µg/mL	< 1 µg/mL	< 1 µg/mL	< 1 µg/mL	< 1 µg/mL	1 to 10 µg/mL (≈ 2.33 to 23.3 µM)	< 1 µg/mL	> 10 µg/mL	1 to 10 µg/mL (≈ 2.33 to 23.3 µM)	1 to 10 µg/mL (≈ 2.33 to 23.3 µM)	1 to 10 µg/mL (≈ 2.33 to 23.3 µM)	
Cc1cc(-c2ccccc2)c(C(=O)C(=O)Nc2ccc(N3CCN(C(C)C(C)C)CC3)cc2)n1C (centres unmarked) [Example 150, 2-(1,5-Dimethyl-3-phenyl-1H-pyrrol-2-yl)-N-{4-[4-(1,2-dimethyl-propyl)-piperazin-1-yl]-phenyl}-2-oxo-acetamide]	< 1 µg/mL	< 1 µg/mL	< 1 µg/mL	< 1 µg/mL	< 1 µg/mL	< 1 µg/mL	< 1 µg/mL	< 1 µg/mL	< 1 µg/mL	< 1 µg/mL	< 1 µg/mL	< 1 µg/mL	
COCC(C)N1CCN(c2ccc(NC(=O)C(=O)c3c(-c4ccccc4)cc(C)n3C)cc2)CC1 (centres unmarked) [Example 151, 2-(1,5-Dimethyl-3-phenyl-1H-pyrrol-2-yl)-N-{4-[4-(2-methoxy-1-methyl-ethyl)-piperazin-1-yl]-phenyl}-2-oxo-acetamide]	< 1 µg/mL	< 1 µg/mL	< 1 µg/mL	< 1 µg/mL	< 1 µg/mL	< 1 µg/mL	< 1 µg/mL	< 1 µg/mL	< 1 µg/mL	< 1 µg/mL	< 1 µg/mL	< 1 µg/mL	
Cc1cc(-c2ccccc2)c(C(=O)C(=O)Nc2ccc(N3CCN(C(C)Cc4ccco4)CC3)cc2)n1C (centres unmarked) [Example 152, 2-(1,5-Dimethyl-3-phenyl-1H-pyrrol-2-yl)-N-{4-[4-(2-furan-2-yl-1-methyl-ethyl)-piperazin-1-yl]-phenyl}-2-oxo-acetamide]	< 1 µg/mL	< 1 µg/mL	< 1 µg/mL	< 1 µg/mL	< 1 µg/mL	< 1 µg/mL	< 1 µg/mL	< 1 µg/mL	< 1 µg/mL	< 1 µg/mL	< 1 µg/mL	< 1 µg/mL	
Cc1cc(-c2ccccc2)c(C(=O)C(=O)Nc2ccc(-c3ncc(CN4CCCCC4)o3)cc2)n1C [Example 153, 2-(1,5-Dimethyl-3-phenyl-1H-pyrrol-2-yl)-2-oxo-N-[4-(5-piperdin-1-ylmethyl-oxazol-2-yl)-phenyl]-acetamide]													MIC grade, A. fumigatus 210 [1]: 2 (A grade of 2 represents an MIC of from 1 to 10 mg/L); MIC grade, A. niger (Aspergillus niger [2]): 3 (A grade of 3 represents an MIC of less than 1 mg/L); MIC grade, A. flavus (Aspergillus flavus [3]): 3 (A grade of 3 represents an MIC of less than 1 mg/L); MIC grade, A. terreus 49 (Aspergillus terreus AT49 [4]): 3 (A grade of 3 represents an MIC of less than 1 mg/L); MIC grade, A. terreus (Aspergillus terreus AT4 [5]): 2 (A grade of 2 represents an MIC of from 1 to 10 mg/L); MIC grade, A. fumigatus [6]: 3 (A grade of 3 represents an MIC of less than 1 mg/L); MIC grade, A. fumigatus 210 ([7]; MIC banded into grades): 2 (A grade of 2 represents an MIC of from 1 to 10 mg/L); MIC grade, A. niger (Aspergillus niger [8]): 3 (A grade of 3 represents an MIC of less than 1 mg/L); MIC grade, A. flavus (Aspergillus flavus [9]): 2 (A grade of 2 represents an MIC of from 1 to 10 mg/L); MIC grade, A. terreus 49 (Aspergillus terreus AT49 [10]; MIC banded into grades): 3 (A grade of 3 represents an MIC of less than 1 mg/L); MIC grade, A. terreus (Aspergillus terreus AT4 [11]; MIC banded into grades): 3 (A grade of 3 represents an MIC of less than 1 mg/L); MIC grade, A. fumigatus ([12]; MIC banded into grades): 2 (A grade of 2 represents an MIC of from 1 to 10 mg/L)
Cc1cc(-c2ccccc2)c(C(=O)C(=O)Nc2ccc(N3CCOCC3)cc2)n1C [Example 154, 2-(1,5-Dimethyl-3-phenyl-1H-pyrrol-2-yl)-N-(4-morpholin-4-yl-phenyl)-2-oxo-acetamide]	< 1 µg/mL	< 1 µg/mL	< 1 µg/mL	< 1 µg/mL	< 1 µg/mL	< 1 µg/mL	< 1 µg/mL	< 1 µg/mL	< 1 µg/mL	< 1 µg/mL	< 1 µg/mL	< 1 µg/mL	
